Measurements as given in PMC9482650, “Quantitative fragmentomics allow affinity mapping of interactomes” (Nature Communications, 2022).
Ends that are not written are not given here.

Assays:
Assay type in all cases: binding
[1] = target: DLG2_2 PDZ (Homo sapiens, UniProt Q15700); assay: Holdup assay; details: composite holdup affinity; 0.00=below quantification threshold; read-out: COMP pKd (converted)
[2] = target: SNTA1 PDZ (Homo sapiens, UniProt Q13424); assay: Holdup assay; details: composite holdup affinity; 0.00=below quantification threshold; read-out: COMP pKd (converted)
Sequence of SNTA1 PDZ (Q13424 87-170 limits assumed): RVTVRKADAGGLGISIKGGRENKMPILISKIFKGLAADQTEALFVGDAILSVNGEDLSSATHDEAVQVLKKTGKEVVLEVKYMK

[3] = target: DLG4_3 PDZ (Homo sapiens, UniProt P78352); assay: Holdup assay; details: composite holdup affinity; 0.00=below quantification threshold; read-out: COMP pKd (converted)
Sequence of DLG4_3 PDZ (P78352 313-393 limits assumed): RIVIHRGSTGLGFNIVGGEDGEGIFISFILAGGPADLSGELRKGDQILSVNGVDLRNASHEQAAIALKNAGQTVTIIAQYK

[4] = target: SNTG2 PDZ (Homo sapiens, UniProt Q9NY99); assay: Holdup assay; details: composite holdup affinity; 0.00=below quantification threshold; read-out: COMP pKd (converted)
Sequence of SNTG2 PDZ (Q9NY99 73-156 limits assumed): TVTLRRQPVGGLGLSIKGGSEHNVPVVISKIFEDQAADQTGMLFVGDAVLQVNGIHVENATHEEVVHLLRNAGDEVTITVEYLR

[5] = target: DLG1_3 PDZ (Homo sapiens, UniProt Q12959); assay: Holdup assay; details: composite holdup affinity; 0.00=below quantification threshold; read-out: COMP pKd (converted)
[6] = target: DLG2_1 PDZ (Homo sapiens, UniProt Q15700); assay: Holdup assay; details: sheet PPI_convert; read-out: affinity to PDZ DLG2_1 (converted)
Sequence of DLG2_1 PDZ (Q15700 98-184): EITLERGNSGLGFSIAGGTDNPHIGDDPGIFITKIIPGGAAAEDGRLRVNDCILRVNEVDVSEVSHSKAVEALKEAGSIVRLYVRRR

[7] = target: MAGI1_2 PDZ (Homo sapiens, UniProt Q96QZ7); assay: biochemical; details: composite holdup affinity; 0.00=below quantification threshold; read-out: COMP pKd (converted)
Sequence of MAGI1_2 PDZ (Q96QZ7 472-554 limits assumed): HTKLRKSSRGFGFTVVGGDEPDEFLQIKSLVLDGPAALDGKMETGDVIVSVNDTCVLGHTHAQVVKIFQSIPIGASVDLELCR

[8] = target: SCRIB_1 PDZ (Homo sapiens, UniProt Q14160); assay: Holdup assay; details: composite holdup affinity; 0.00=below quantification threshold; read-out: COMP pKd (converted)
Sequence of SCRIB_1 PDZ (Q14160 728-815 limits assumed): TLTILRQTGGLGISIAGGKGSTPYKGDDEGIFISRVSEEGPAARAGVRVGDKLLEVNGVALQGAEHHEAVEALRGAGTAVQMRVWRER

[9] = target: PTPN3 PDZ (Homo sapiens, UniProt P26045); assay: Holdup assay; details: composite holdup affinity; 0.00=below quantification threshold; read-out: COMP pKd (converted)
Sequence of PTPN3 PDZ (P26045 510-582 limits assumed): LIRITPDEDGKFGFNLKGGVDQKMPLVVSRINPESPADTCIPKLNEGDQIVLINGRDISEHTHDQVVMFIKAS

[10] = target: MAGI2_5 PDZ (Homo sapiens, UniProt Q86UL8); assay: Holdup assay; details: composite holdup affinity; 0.00=below quantification threshold; read-out: COMP pKd (converted)
Sequence of MAGI2_5 PDZ (Q86UL8 920-1010 limits assumed): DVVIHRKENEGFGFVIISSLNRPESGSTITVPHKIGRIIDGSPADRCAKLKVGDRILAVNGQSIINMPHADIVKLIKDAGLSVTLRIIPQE

[11] = target: ARHGEF12 PDZ (Homo sapiens, UniProt Q9NZN5); assay: Holdup assay; details: composite holdup affinity; 0.00=below quantification threshold; read-out: COMP pKd (converted)
Sequence of ARHGEF12 PDZ (Q9NZN5 72-151 limits assumed): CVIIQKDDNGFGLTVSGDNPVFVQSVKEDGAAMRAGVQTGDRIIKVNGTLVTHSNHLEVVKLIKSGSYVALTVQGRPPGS

[12] = target: SNTB1 PDZ (Homo sapiens, UniProt Q13884); assay: Holdup assay; details: composite holdup affinity; 0.00=below quantification threshold; read-out: COMP pKd (converted)
Sequence of SNTB1 PDZ (Q13884 112-195 limits assumed): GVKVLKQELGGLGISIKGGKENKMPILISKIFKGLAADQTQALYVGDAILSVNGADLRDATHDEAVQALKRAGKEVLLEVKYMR

[13] = target: MAGI3_2 PDZ (Homo sapiens, UniProt Q5TCQ9); assay: Holdup assay; details: composite holdup affinity; 0.00=below quantification threshold; read-out: COMP pKd (converted)
Sequence of MAGI3_2 PDZ (Q5TCQ9 410-492 limits assumed): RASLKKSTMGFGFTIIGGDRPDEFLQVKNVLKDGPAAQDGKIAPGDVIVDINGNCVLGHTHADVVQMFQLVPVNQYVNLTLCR

[14] = target: ARHGEF11 PDZ (Homo sapiens, UniProt O15085); assay: Holdup assay; details: composite holdup affinity; 0.00=below quantification threshold; read-out: COMP pKd (converted)
Sequence of ARHGEF11 PDZ (O15085 47-126 limits assumed): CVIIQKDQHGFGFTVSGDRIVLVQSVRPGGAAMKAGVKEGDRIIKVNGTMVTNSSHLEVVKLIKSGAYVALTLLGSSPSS

[15] = target: MAGI2_4 PDZ (Homo sapiens, UniProt Q86UL8); assay: Holdup assay; details: composite holdup affinity; 0.00=below quantification threshold; read-out: COMP pKd (converted)
Sequence of MAGI2_4 PDZ (Q86UL8 778-860 limits assumed): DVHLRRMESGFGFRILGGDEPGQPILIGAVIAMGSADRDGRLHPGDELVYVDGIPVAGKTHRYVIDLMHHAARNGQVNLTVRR

[16] = target: GIPC1 PDZ (Homo sapiens, UniProt O14908); assay: Holdup assay; details: sheet PPI_convert; read-out: affinity to PDZ GIPC1 (converted)
Sequence of GIPC1 PDZ (O14908 133-213 limits assumed): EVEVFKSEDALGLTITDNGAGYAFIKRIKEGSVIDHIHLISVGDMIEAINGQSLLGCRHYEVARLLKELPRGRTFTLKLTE
Text: Supplement 41467_2022_33018_MOESM4_ESM.xlsx, sheet "PPI_convert" | column: GIPC1

[17] = target: DLG2_3 PDZ (Homo sapiens, UniProt Q15700); assay: Holdup assay; details: composite holdup affinity; 0.00=below quantification threshold; read-out: COMP pKd (converted)
Sequence of DLG2_3 PDZ (Q15700 421-501 limits assumed): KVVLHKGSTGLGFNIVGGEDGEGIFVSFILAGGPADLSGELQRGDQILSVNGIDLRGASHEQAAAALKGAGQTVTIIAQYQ

[18] = target: DLG3_3 PDZ (Homo sapiens, UniProt Q92796); assay: Holdup assay; details: composite holdup affinity; 0.00=below quantification threshold; read-out: COMP pKd (converted)
Sequence of DLG3_3 PDZ (Q92796 379-465 limits assumed): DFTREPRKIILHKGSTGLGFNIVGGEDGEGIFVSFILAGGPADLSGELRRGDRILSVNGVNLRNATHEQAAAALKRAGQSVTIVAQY

[19] = target: LNX2_2 PDZ (Homo sapiens, UniProt Q8N448); assay: Holdup assay; details: composite holdup affinity; 0.00=below quantification threshold; read-out: COMP pKd (converted)
Sequence of LNX2_2 PDZ (Q8N448 339-422 limits assumed): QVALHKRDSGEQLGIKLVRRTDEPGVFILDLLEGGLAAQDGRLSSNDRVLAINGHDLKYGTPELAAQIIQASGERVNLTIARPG

[20] = target: MAGI2_3 PDZ (Homo sapiens, UniProt Q86UL8); assay: Holdup assay; details: composite holdup affinity; 0.00=below quantification threshold; read-out: COMP pKd (converted)
Sequence of MAGI2_3 PDZ (Q86UL8 605-683 limits assumed): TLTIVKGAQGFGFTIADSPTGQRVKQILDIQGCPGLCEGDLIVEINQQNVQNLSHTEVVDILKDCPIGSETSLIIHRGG

[21] = target: RHPN1 PDZ (Homo sapiens, UniProt Q8TCX5); assay: Holdup assay; details: composite holdup affinity; 0.00=below quantification threshold; read-out: COMP pKd (converted)
Sequence of RHPN1 PDZ (Q8TCX5 513-592 limits assumed): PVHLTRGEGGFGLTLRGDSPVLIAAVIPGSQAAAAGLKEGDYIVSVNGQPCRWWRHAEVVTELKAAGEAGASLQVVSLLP

[22] = target: APBA1_2 PDZ (Homo sapiens, UniProt Q02410); assay: Holdup assay; details: composite holdup affinity; 0.00=below quantification threshold; read-out: COMP pKd (converted)
Sequence of APBA1_2 PDZ (Q02410 747-822 limits assumed): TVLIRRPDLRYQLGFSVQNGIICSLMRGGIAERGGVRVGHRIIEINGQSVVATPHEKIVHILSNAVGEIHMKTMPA

[23] = target: GRIP1_2 PDZ (Homo sapiens, UniProt Q9Y3R0); assay: Holdup assay; details: composite holdup affinity; 0.00=below quantification threshold; read-out: COMP pKd (converted)
Sequence of GRIP1_2 PDZ (Q9Y3R0 150-238 limits assumed): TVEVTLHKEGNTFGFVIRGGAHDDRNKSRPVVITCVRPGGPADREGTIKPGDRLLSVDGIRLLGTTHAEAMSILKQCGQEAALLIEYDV

[24] = target: DLG1_1 PDZ (Homo sapiens, UniProt Q12959); assay: Holdup assay; details: composite holdup affinity; 0.00=below quantification threshold; read-out: COMP pKd (converted)
[25] = target: SNTG1 PDZ (Homo sapiens, UniProt Q9NSN8); assay: Holdup assay; details: composite holdup affinity; 0.00=below quantification threshold; read-out: COMP pKd (converted)
Sequence of SNTG1 PDZ (Q9NSN8 57-140 limits assumed): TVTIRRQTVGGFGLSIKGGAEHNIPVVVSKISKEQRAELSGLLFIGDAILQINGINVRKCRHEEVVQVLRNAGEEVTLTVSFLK

[26] = target: NHERF3_1 PDZ (Homo sapiens, UniProt Q5T2W1); assay: Holdup assay; details: composite holdup affinity; 0.00=below quantification threshold; read-out: COMP pKd (converted)
Sequence of NHERF3_1 PDZ (Q5T2W1 9-90 limits assumed): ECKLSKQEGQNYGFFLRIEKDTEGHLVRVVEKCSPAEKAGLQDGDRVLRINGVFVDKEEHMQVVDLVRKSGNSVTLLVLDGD

[27] = target: DFNB31_1 PDZ (Homo sapiens, UniProt Q9P202); assay: Holdup assay; details: composite holdup affinity; 0.00=below quantification threshold; read-out: COMP pKd (converted)
Sequence of DFNB31_1 PDZ (Q9P202 140-223 limits assumed): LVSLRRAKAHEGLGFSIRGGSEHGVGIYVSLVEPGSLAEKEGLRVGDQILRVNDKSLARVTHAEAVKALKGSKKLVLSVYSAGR

[28] = target: DLG3_2 PDZ (Homo sapiens, UniProt Q92796); assay: Holdup assay; details: composite holdup affinity; 0.00=below quantification threshold; read-out: COMP pKd (converted)
Sequence of DLG3_2 PDZ (Q92796 226-311 limits assumed): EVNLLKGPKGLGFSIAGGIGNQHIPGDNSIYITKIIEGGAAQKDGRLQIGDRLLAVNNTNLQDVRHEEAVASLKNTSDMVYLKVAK

[29] = target: DLG1_2 PDZ (Homo sapiens, UniProt Q12959); assay: Holdup assay; details: composite holdup affinity; 0.00=below quantification threshold; read-out: COMP pKd (converted)
[30] = target: NOS1 PDZ (Homo sapiens, UniProt P29475); assay: Holdup assay; details: composite holdup affinity; 0.00=below quantification threshold; read-out: COMP pKd (converted)
Sequence of NOS1 PDZ (P29475 17-99 limits assumed): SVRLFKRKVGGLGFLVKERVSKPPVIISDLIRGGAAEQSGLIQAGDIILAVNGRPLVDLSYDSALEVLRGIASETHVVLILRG

[31] = target: T1, SYNJ2BP PDZ (Homo sapiens, UniProt P57105); assay: Holdup assay; details: composite holdup affinity; 0.00=below quantification threshold; read-out: COMP pKd (converted)
T1 sequence (P57105 13-100 limits assumed): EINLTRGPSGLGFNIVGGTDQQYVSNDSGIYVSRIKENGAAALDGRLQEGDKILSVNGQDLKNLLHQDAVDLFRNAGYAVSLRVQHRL

[32] = target: DLG4_2 PDZ (Homo sapiens, UniProt P78352); assay: Holdup assay; details: composite holdup affinity; 0.00=below quantification threshold; read-out: COMP pKd (converted)
Sequence of DLG4_2 PDZ (P78352 160-246 limits assumed): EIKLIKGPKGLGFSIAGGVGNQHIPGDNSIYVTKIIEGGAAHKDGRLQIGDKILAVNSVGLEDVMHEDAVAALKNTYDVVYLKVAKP

[33] = target: T2, MAST2 PDZ (Homo sapiens, UniProt Q6P0Q8); assay: biochemical; details: composite holdup affinity; 0.00=below quantification threshold; read-out: COMP pKd (converted)
T2 sequence (Q6P0Q8 1104-1192 limits assumed): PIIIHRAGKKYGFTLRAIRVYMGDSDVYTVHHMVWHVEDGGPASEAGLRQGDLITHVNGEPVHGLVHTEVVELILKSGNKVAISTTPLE

[34] = target: T3, TX1BP3 PDZ (Homo sapiens, UniProt O14907); assay: Holdup assay; details: composite holdup affinity; 0.00=below quantification threshold; read-out: COMP pKd (converted)
T3 sequence (O14907 15-112 limits assumed): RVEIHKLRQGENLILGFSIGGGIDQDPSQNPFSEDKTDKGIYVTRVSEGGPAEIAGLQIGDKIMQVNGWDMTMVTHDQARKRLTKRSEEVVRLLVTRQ

[35] = target: LAP2 PDZ (Homo sapiens, UniProt Q96RT1); assay: Holdup assay; details: composite holdup affinity; 0.00=below quantification threshold; read-out: COMP pKd (converted)
Sequence of LAP2 PDZ (Q96RT1 1321-1410 limits assumed): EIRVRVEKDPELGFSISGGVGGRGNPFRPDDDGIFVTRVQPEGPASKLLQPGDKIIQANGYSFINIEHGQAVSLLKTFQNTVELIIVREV

[36] = target: PDZD7_3 PDZ (Homo sapiens, UniProt Q9H5P4); assay: Holdup assay; details: composite holdup affinity; 0.00=below quantification threshold; read-out: COMP pKd (converted)
Sequence of PDZD7_3 PDZ (Q9H5P4 862-934 limits assumed): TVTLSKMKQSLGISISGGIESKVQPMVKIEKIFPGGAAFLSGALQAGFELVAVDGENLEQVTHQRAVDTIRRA

Sequence of DLG2_2 PDZ (Q15700 193-279 limits assumed): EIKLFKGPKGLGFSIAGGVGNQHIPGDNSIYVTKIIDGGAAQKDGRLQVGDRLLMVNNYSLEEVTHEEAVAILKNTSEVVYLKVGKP

Sequence	Kd [1] [µM]	Kd [2] [µM]	Kd [3] [µM]	Kd [4] [µM]	Kd [5] [µM]	Kd [6] [µM]	Kd [7] [µM]	Kd [8] [µM]	Kd [9] [µM]	Kd [10] [µM]	Kd [11] [µM]	Kd [12] [µM]	Kd [13] [µM]	Kd [14] [µM]	Kd [15] [µM]	Kd [16] [µM]	Kd [17] [µM]	Kd [18] [µM]	Kd [19] [µM]	Kd [20] [µM]	other results
RTRQRNETQV [HPV51-E6]	10.7	58.9	17.8	60.3	28.8	8.71	1.17	27.5	41.7	75.9	186	81.3	1.48	204	39.8	7.94	17.8	12.3	245	95.5	Kd [21]: 200 µM; Kd [22]: 275 µM; Kd [23]: 347 µM; Kd [24]: 16.6 µM; Kd [25]: 105 µM; Kd [26]: 67.6 µM; Kd [27]: 339 µM; Kd [28]: 7.94 µM; Kd [29]: 7.41 µM; Kd [30]: 123 µM; Kd [31]: 9.55 µM; Kd [32]: 10.2 µM; Kd [33]: 5.37 µM; Kd [34]: 74.1 µM; Kd [35]: 204 µM; Kd [36]: 132 µM
RHTTSTETAV [HPV30-E6]	6.46	19.1	44.7	21.4	40.7	14.5	40.7	17.4	7.41	49	63.1	7.94	4.37	44.7	85.1	20	16.2	21.9	170	26.9	Kd [21]: 83.2 µM; Kd [22]: 58.9 µM; Kd [23]: 166 µM; Kd [24]: 11.7 µM; Kd [25]: 11.5 µM; Kd [26]: 13.5 µM; Kd [27]: 53.7 µM; Kd [28]: 3.89 µM; Kd [29]: 2.34 µM; Kd [30]: 23.4 µM; Kd [31]: 4.37 µM; Kd [32]: 3.55 µM; Kd [33]: 3.02 µM; Kd [34]: 22.4 µM; Kd [35]: 34.7 µM; Kd [36]: 79.4 µM
